# Data reported in PubChem BioAssay AID248 (DTP/NCI, 2004).
# Inconclusive results and toxic doses are left out.
# System: L1210 leukemia ip in BDF1 mice, survival T/C
# Assay: NCI In Vivo Anticancer Drug Screen. Data for tumor model L1210 Leukemia (intraperitoneal) in B6D2F1 (BDF1) mice
# Details: higher = longer survival
# Method in brief: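 Antitumor effect is assessed in tumor-bearing animals. Survival in the compound arm is compared with a vehicle-dosed control arm and expressed as their quotient.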
# [1] = endpoint: mean survival time, dose: 100.0 mg/kg/injection, schedule: Q01DX001 (ip), vehicle: carboxymethylcellulose (CMC)
# [2] = endpoint: mean survival time, dose: 200.0 mg/kg/injection, schedule: Q01DX001 (ip), vehicle: carboxymethylcellulose (CMC)
# [3] = endpoint: mean survival time, dose: 400.0 mg/kg/injection, schedule: Q01DX001 (ip), vehicle: carboxymethylcellulose (CMC)
# [4] = endpoint: mean survival time, dose: 100.0 mg/kg/injection, schedule: Q01DX009 (ip), vehicle: Klucel (hydroxypropylcellulose) (HPC)
# [5] = endpoint: mean survival time, dose: 200.0 mg/kg/injection, schedule: Q01DX009 (ip), vehicle: Klucel (hydroxypropylcellulose) (HPC)
# [6] = endpoint: mean survival time, dose: 100.0 mg/kg/injection, schedule: Q04DX003 (ip), vehicle: other
# [7] = endpoint: mean survival time, dose: 200.0 mg/kg/injection, schedule: Q04DX003 (ip), vehicle: other
# [8] = endpoint: mean survival time, dose: 400.0 mg/kg/injection, schedule: Q04DX003 (ip), vehicle: other
# [9] = endpoint: mean survival time, dose: 100.0 mg/kg/injection, schedule: Q04DX003 (ip), vehicle: saline with Tween-80
# [10] = endpoint: mean survival time, dose: 200.0 mg/kg/injection, schedule: Q04DX003 (ip), vehicle: saline with Tween-80
# [11] = endpoint: mean survival time, dose: 100.0 mg/kg/injection, schedule: Q01DX001 (ip), vehicle: saline
# [12] = endpoint: mean survival time, dose: 200.0 mg/kg/injection, schedule: Q01DX001 (ip), vehicle: saline
# [13] = endpoint: mean survival time, dose: 400.0 mg/kg/injection, schedule: Q01DX001 (ip), vehicle: saline
# [14] = endpoint: mean survival time, dose: 100.0 mg/kg/injection, schedule: Q04DX003 (ip), vehicle: Klucel (hydroxypropylcellulose) (HPC)
# [15] = endpoint: mean survival time, dose: 200.0 mg/kg/injection, schedule: Q04DX003 (ip), vehicle: Klucel (hydroxypropylcellulose) (HPC)
# [16] = endpoint: mean survival time, dose: 400.0 mg/kg/injection, schedule: Q01DX009 (ip), vehicle: Klucel (hydroxypropylcellulose) (HPC)
structure (smiles),measurement,setting,value
ClC(c1ccccc1)C(Cl)c1ccccc1 (stereo not drawn),T/C,"endpoint: mean survival time, dose: 50.0 mg/kg/injection, schedule: Q01DX001 (ip), vehicle: carboxymethylcellulose (CMC)",101 % of control
same,T/C,"endpoint: mean survival time, dose: 75.0 mg/kg/injection, schedule: Q04DX002 (ip), vehicle: Klucel (hydroxypropylcellulose) (HPC)",109 % of control
same,T/C,[1],106 % of control
same,T/C,"endpoint: mean survival time, dose: 150.0 mg/kg/injection, schedule: Q04DX002 (ip), vehicle: Klucel (hydroxypropylcellulose) (HPC)",95 % of control
same,T/C,[2],101 % of control
same,T/C,"endpoint: mean survival time, dose: 300.0 mg/kg/injection, schedule: Q04DX002 (ip), vehicle: Klucel (hydroxypropylcellulose) (HPC)",92 % of control
same,T/C,[3],101 % of control
O=C(Nc1cccc(Cl)c1Cl)Sc1ccccc1O,T/C,[4],104 % of control
same,T/C,[5],97 % of control
Cc1ccc(CN(CC(=O)O)S(C)(=O)=O)cc1,T/C,"endpoint: mean survival time, dose: 100.0 mg/kg/injection, schedule: Q01DX009 (ip), vehicle: other",105 % of control
same,T/C,[6],95 % of control
same,T/C,"endpoint: mean survival time, dose: 200.0 mg/kg/injection, schedule: Q01DX009 (ip), vehicle: other",98 % of control
same,T/C,[7],97 % of control
same,T/C,"endpoint: mean survival time, dose: 400.0 mg/kg/injection, schedule: Q01DX009 (ip), vehicle: other",110 % of control
same,T/C,[8],101 % of control
CC(=O)OC1CCSCC1,T/C,[9],101 % of control
same,T/C,[10],93 % of control
same,T/C,"endpoint: mean survival time, dose: 400.0 mg/kg/injection, schedule: Q04DX003 (ip), vehicle: saline with Tween-80",103 % of control
CC(=O)OC1CC2CCC1C2Br (stereo not drawn),T/C,[1],95 % of control
same,T/C,[2],93 % of control
same,T/C,[3],90 % of control
O=C(Nc1ccc(CC2=NCCCN2)cc1)c1ccc(C(=O)Nc2ccc(CC3=NCCCN3)cc2)cc1,T/C,"endpoint: mean survival time, dose: 0.5 mg/kg/injection, schedule: Q01DX Z (ip), vehicle: water",95 % of control
same,T/C,"endpoint: mean survival time, dose: 1.0 mg/kg/injection, schedule: Q01DX Z (ip), vehicle: water",103 % of control
NC(Cc1cc(I)c(Oc2cc(I)c(O)c(I)c2)c(I)c1)C(=O)O (stereo not drawn),T/C,"endpoint: median survival time, dose: 0.63 mg/kg/injection, schedule: Q01DX009 (ip), vehicle: saline",98 % of control
same,T/C,"endpoint: median survival time, dose: 2.5 mg/kg/injection, schedule: Q01DX009 (ip), vehicle: saline",92 % of control
same,T/C,"endpoint: median survival time, dose: 10.0 mg/kg/injection, schedule: Q01DX009 (ip), vehicle: saline",88 % of control
same,T/C,"endpoint: median survival time, dose: 40.0 mg/kg/injection, schedule: Q01DX009 (ip), vehicle: saline",93 % of control
O=[N+]([O-])c1ccc(N2N=NC3CC/C(=C\c4cccs4)C32N2CCOCC2)cc1 (stereo not drawn),T/C,"endpoint: mean survival time, dose: 100.0 mg/kg/injection, schedule: Q04DX002 (ip), vehicle: Klucel (hydroxypropylcellulose) (HPC)",93 % of control
same,T/C,"endpoint: mean survival time, dose: 200.0 mg/kg/injection, schedule: Q04DX002 (ip), vehicle: Klucel (hydroxypropylcellulose) (HPC)",101 % of control
same,T/C,"endpoint: mean survival time, dose: 400.0 mg/kg/injection, schedule: Q04DX002 (ip), vehicle: Klucel (hydroxypropylcellulose) (HPC)",90 % of control
O=C1NC(=O)C(c2ccc(Cl)cc2)N1 (stereo not drawn),T/C,"endpoint: mean survival time, dose: 50.0 mg/kg/injection, schedule: Q01DX001 (ip), vehicle: saline",100 % of control
same,T/C,[11],94 % of control
same,T/C,[12],97 % of control
same,T/C,[13],96 % of control
CCCCN=C(N)c1ccc(S(=O)(=O)N=C(N)N)cc1,T/C,[11],97 % of control
same,T/C,[12],101 % of control
same,T/C,[13],97 % of control
C[N+](C)(C)CCC[N+]1(C)CC2CC=CCC2C1 (stereo not drawn),T/C,"endpoint: mean survival time, dose: 100.0 mg/kg/injection, schedule: Q01DX Z (ip), vehicle: saline",97 % of control
same,T/C,"endpoint: mean survival time, dose: 145.0 mg/kg/injection, schedule: Q01DX Z (ip), vehicle: saline",97 % of control
same,T/C,"endpoint: mean survival time, dose: 220.0 mg/kg/injection, schedule: Q01DX Z (ip), vehicle: saline",87 % of control
O=C(NCCCCCCCCCCNC(=O)C(Cl)Cl)C(Cl)Cl,T/C,[14],98 % of control
same,T/C,[15],90 % of control
same,T/C,"endpoint: mean survival time, dose: 400.0 mg/kg/injection, schedule: Q04DX003 (ip), vehicle: Klucel (hydroxypropylcellulose) (HPC)",105 % of control
CCC(C)(C)c1ccc(OCCCCCCN2CCN(c3ccc(C)c(Cl)c3)CC2)cc1,T/C,"endpoint: mean survival time, dose: 75.0 mg/kg/injection, schedule: Q01DX001 (ip), vehicle: saline",102 % of control
same,T/C,"endpoint: mean survival time, dose: 150.0 mg/kg/injection, schedule: Q01DX001 (ip), vehicle: saline",110 % of control
CNS(=O)(=O)c1ccc(NC(=O)C(Cl)(Cl)Cl)cc1,T/C,"endpoint: mean survival time, dose: 100.0 mg/kg/injection, schedule: Q01DX001 (ip), vehicle: other",105 % of control
same,T/C,[4],102 % of control
same,T/C,[6],101 % of control
same,T/C,"endpoint: mean survival time, dose: 200.0 mg/kg/injection, schedule: Q01DX001 (ip), vehicle: other",104 % of control
same,T/C,[5],95 % of control
same,T/C,[7],101 % of control
same,T/C,"endpoint: mean survival time, dose: 400.0 mg/kg/injection, schedule: Q01DX001 (ip), vehicle: other",104 % of control
same,T/C,[16],96 % of control
same,T/C,[8],98 % of control
CC(C)Sc1ncnc2nc[nH]c12,T/C,"endpoint: mean survival time, dose: 2.5 mg/kg/injection, schedule: Q01DX009 (sc), vehicle: steriod suspending solution",97 % of control
same,T/C,"endpoint: mean survival time, dose: 5.0 mg/kg/injection, schedule: Q01DX009 (sc), vehicle: steriod suspending solution",100 % of control
same,T/C,"endpoint: mean survival time, dose: 10.0 mg/kg/injection, schedule: Q01DX009 (sc), vehicle: steriod suspending solution",96 % of control
same,T/C,"endpoint: mean survival time, dose: 18.0 mg/kg/injection, schedule: Q01DX009 (ip), vehicle: saline with Tween-80",102 % of control
same,T/C,"endpoint: mean survival time, dose: 27.0 mg/kg/injection, schedule: Q01DX009 (ip), vehicle: saline with Tween-80",104 % of control
same,T/C,"endpoint: mean survival time, dose: 40.0 mg/kg/injection, schedule: Q01DX009 (ip), vehicle: saline with Tween-80",110 % of control
same,T/C,"endpoint: mean survival time, dose: 60.0 mg/kg/injection, schedule: Q01DX009 (ip), vehicle: saline with Tween-80",109 % of control
same,T/C,"endpoint: mean survival time, dose: 75.0 mg/kg/injection, schedule: Q01DX001 (sc), vehicle: steriod suspending solution",103 % of control
same,T/C,"endpoint: mean survival time, dose: 75.0 mg/kg/injection, schedule: Q01DX009 (sc), vehicle: steriod suspending solution",166 % of control
same,T/C,"endpoint: mean survival time, dose: 150.0 mg/kg/injection, schedule: Q01DX009 (sc), vehicle: steriod suspending solution",160 % of control
O=S(=O)(NS(=O)(=O)c1ccc(Cl)cc1)c1ccc(Cl)cc1,T/C,"endpoint: mean survival time, dose: 50.0 mg/kg/injection, schedule: Q01DX009 (ip), vehicle: Klucel (hydroxypropylcellulose) (HPC)",93 % of control
same,T/C,[4],96 % of control
same,T/C,[14],88 % of control
same,T/C,[5],104 % of control
same,T/C,[15],87 % of control
CCC(CO)ON=C(C)C (stereo not drawn),T/C,[11],104 % of control
same,T/C,[12],104 % of control
same,T/C,[13],102 % of control
C=CCOc1ccc(Cl)cc1,T/C,[9],90 % of control
same,T/C,[10],94 % of control
Nc1ncnc(N2CCOCC2)n1,T/C,[1],96 % of control
same,T/C,[2],107 % of control
same,T/C,[3],100 % of control
COC(=O)c1ccccc1NC(=O)Nc1ccc(F)cc1,T/C,[4],90 % of control
same,T/C,[5],90 % of control
same,T/C,[16],90 % of control
[I][Hg][I].c1ccc(P(N2CCCCC2)N2CCCCC2)cc1,T/C,[4],102 % of control
same,T/C,[5],97 % of control
same,T/C,[16],97 % of control
Nc1cccc2cc3ccccc3[n+]([O-])c12,T/C,"endpoint: mean survival time, dose: 100.0 mg/kg/injection, schedule: Q01DX009 (ip), vehicle: saline with Tween-80",103 % of control
same,T/C,"endpoint: mean survival time, dose: 200.0 mg/kg/injection, schedule: Q01DX009 (ip), vehicle: saline with Tween-80",103 % of control
same,T/C,"endpoint: mean survival time, dose: 400.0 mg/kg/injection, schedule: Q01DX009 (ip), vehicle: saline with Tween-80",93 % of control
O=C1CCC(CC2CCCCC2)CC1,T/C,[9],100 % of control
same,T/C,[10],95 % of control
CC(C)(N)CN,T/C,[11],96 % of control
same,T/C,[12],96 % of control
same,T/C,[13],94 % of control
CCNC(=S)NCCO,T/C,"endpoint: mean survival time, dose: 100.0 mg/kg/injection, schedule: Q04DX003 (ip), vehicle: saline sonified",97 % of control
same,T/C,"endpoint: mean survival time, dose: 200.0 mg/kg/injection, schedule: Q04DX003 (ip), vehicle: saline sonified",90 % of control
same,T/C,"endpoint: mean survival time, dose: 400.0 mg/kg/injection, schedule: Q04DX003 (ip), vehicle: saline sonified",97 % of control
NC(C[Se][Se]CC(N)C(=O)O)C(=O)O (stereo not drawn),T/C,"endpoint: mean survival time, dose: 1.56 mg/kg/injection, schedule: Q04DX002 (ip), vehicle: saline",103 % of control
same,T/C,"endpoint: mean survival time, dose: 3.12 mg/kg/injection, schedule: Q04DX002 (ip), vehicle: saline",103 % of control
same,T/C,"endpoint: mean survival time, dose: 6.25 mg/kg/injection, schedule: Q04DX002 (ip), vehicle: saline",103 % of control
same,T/C,"endpoint: mean survival time, dose: 12.5 mg/kg/injection, schedule: Q04DX002 (ip), vehicle: saline",88 % of control
